Laboratory results from patent publication US11466044B2 (WAYNE STATE UNIVERSITY, priority 2017, dated 2022).
Converted amounts (≈) assume the structure as drawn. Where two headings read alike, the source gives them in different places.

Tests used:
MRSA = test: MIC by broth microdilution, MRSA isolates; assay type: cell-based
E coli wild type = test: MIC by broth microdilution, wild type E coli; assay type: cell-based
P aeruginosa = test: MIC by broth microdilution, P aeruginosa isolates; assay type: cell-based, Pseudomonas aeruginosa; conditions: for MIC50: Pseudomonas aeruginosa
[1] = test system: E coli carrying specific resistance determinants; test: MIC by broth microdilution, E coli carrying specific resistance determinants; assay type: cell-based; conditions: for MIC50 / MIC: Escherichia coli
[2] = test system: wild type bacterial ribosomes; test: in-vitro translation assay, bacterial ribosomes; assay type: biochemical; conditions: bacterial ribosome; Table 3 (Example 2); read-out: IC50 Bac
Description: (§1) The antiribosomal activity of these compounds was investigated with cell-free translation assays using both wild type bacterial ribosomes and hybrid ribosomes carrying eukaryotic decoding A sites enabling the prediction of selectivity.

[3] = test system: cytosolic ribosome (human chimeric); assay type: biochemical
Description: as §1

[4] = test system: mitochondrial ribosome (human chimeric); assay type: biochemical
Description: as §1

[5] = test system: Klebsiella pneumonia AG215; test: MIC by broth microdilution, Klebsiella pneumonia; assay type: cell-based; conditions: strain AG215 Klebsiella pneumonia
[6] = test system: Acinetobacter baumannii pittii AG225; test: MIC by broth microdilution, Acinetobacter baumannii; assay type: cell-based; conditions: strain AG225 Acinetobacter baumannii pittii
[7] = test system: Enterobacter cloacae AG290; test: MIC by broth microdilution, Enterobacter cloacae; assay type: cell-based; conditions: strain AG290 Enterobacter cloacae; read-out: MIC AG290 E. cloacae
M. smegmatis SZ380 = test: MIC by broth microdilution, M. smegmatis; conditions: for MIC SZ380 M. smegmatis: strain SZ380 Mycobacterium smegmatis
[8] = test system: A1555G mutant mitochondrial ribosome (human chimeric); test: in-vitro translation assay, human chimeric ribosomes, A1555G mutant mitochondrial decoding site; assay type: biochemical; conditions: Table 3 (Example 3)
Description: as §1

For `CC1CC(N)C2O[C@H](O[C@@H]3C(N)C[C@@H](N)C(O)[C@H]3O[C@@H]3O[C@H](CO)[C@H](O[C@H]4O[C@@H](CN)[C@@H](O)C(O)C4N)C3O)C(N)[C@@H](O)[C@@H]2O1` (stereo partly drawn) [Compound 139, 4-O-(2′,6′-Diamino-4′,8′-anhydro-2′,6′,7′,9′-tetradeoxy-D-threo-α-D-gluco-nonapyranosyl)-5-O-(β-paramobiosyl)-2-deoxystreptamine.6AcOH], the “MIC50 MRSA AG38” value (MRSA; strain AG38, Table 1 (Example 2)) was 4 µg/mL (≈ 6.11 µM), the “MIC50 MRSA AG39” value (MRSA; strain AG39, Table 1 (Example 2)) was 4 µg/mL (≈ 6.11 µM) and the “MIC50 MRSA AG42” value (MRSA; strain AG42, Table 1 (Example 2)) was 2 µg/mL (≈ 3.05 µM). The “MIC50 MRSA AG44” value (MRSA; strain AG44, Table 1 (Example 2)) was 2 µg/mL (≈ 3.05 µM), the “MIC50 E coli BM13 (AG06) wt” value (E coli wild type; BM13 (AG06) wt, Table 2A (Example 2)) was 1 to 2 µg/mL and the MIC (E coli wild type; Escherichia coli, ATCC25922, strain AG212 E. coli (ATCC25922), read-out: MIC AG212 E. coli) was 1 µg/mL (≈ 1.53 µM). The “MIC WT” value (E coli wild type; WT, Table 3 (Example 2)) was 0.5 to 1 µg/mL, the “MIC50 E coli pH430 WT” value (E coli wild type; pH430 WT, Table 2B (Example 2)) was 0.5-1 μg/ml and the “MIC50 E coli AG01” value (E coli wild type; strain AG01, Table 1 (Example 2)) was 2 µg/mL (≈ 3.05 µM). For the same molecule, the “MIC50 E coli AG03” value (E coli wild type; strain AG03, Table 1 (Example 2)) was 2 µg/mL (≈ 3.05 µM), the “MIC50 E coli AG55” value (E coli wild type; strain AG55, Table 1 (Example 2)) was 2 µg/mL (≈ 3.05 µM) and the MIC50 (P aeruginosa; strain AG33, Table 1 (Example 2), read-out: MIC50 P aeruginosa AG33) was 128 µg/mL (≈ 196 µM). The MIC50 (P aeruginosa; strain AG86, Table 1 (Example 2), read-out: MIC50 P aeruginosa AG86) was 128 µg/mL (≈ 196 µM), the “MIC50 P aeruginosa AG31” value (P aeruginosa; strain AG31, Table 1 (Example 2)) was 32 µg/mL (≈ 48.9 µM) and the “MIC50 P aeruginosa AG32” value (P aeruginosa; strain AG32, Table 1 (Example 2)) was 32 µg/mL (≈ 48.9 µM). For the same molecule, the MIC (P aeruginosa; strain AG220 Pseudomonas aeruginosa ATCC27853, read-out: MIC AG220 P. aerugin) was 16 to 32 µg/mL (≈ 24.4 to 48.9 µM), the MIC50 ([1]; read-out: MIC50 E coli AG07 AAC(3), AG07 AAC(3), Table 2A (Example 2)) was 4 µg/mL (≈ 6.11 µM) and the MIC50 ([1]; read-out: MIC50 E coli AG09 AAC(6′), AG09 AAC(6′), Table 2A (Example 2)) was 2 µg/mL (≈ 3.05 µM). For the same molecule, the MIC50 ([1]; read-out: MIC50 E coli AG036 ANT(4′,4″), AG036 ANT(4′,4″), Table 2A (Example 2)) was 2 µg/mL (≈ 3.05 µM), the MIC50 ([1]; read-out: MIC50 E coli AG036 ANT(4′,4″), AG036 ANT(4′,4″), Table 2B (Example 2)) was 0.25 µg/mL (≈ 0.382 µM) and the MIC50 ([1]; read-out: MIC50 E coli AG037 APH(3′)-III, AG037 APH(3′)-III, Table 2B (Example 2)) was 8 to 16 µg/mL (≈ 12.2 to 24.4 µM). For the same molecule, the MIC50 ([1]; read-out: MIC50 E coli AG037 APH(3′,5″), AG037 APH(3′,5″), Table 2A (Example 2)) was 32 to 64 µg/mL (≈ 48.9 to 97.8 µM), the MIC50 ([1]; read-out: MIC50 E coli AG103 ArmA, AG103 ArmA, Table 2A (Example 2)) was 2 µg/mL (≈ 3.05 µM) and the MIC50 ([1]; read-out: MIC50 E coli AG103 armA, AG103 armA, Table 2B (Example 2)) was 0.5 µg/mL (≈ 0.764 µM). The MIC50 ([1]; read-out: MIC50 E coli AG105 AAC(2′), AG105 AAC(2′), Table 2A (Example 2)) was 2 to 4 µg/mL (≈ 3.05 to 6.11 µM), the MIC50 ([1]; read-out: MIC50 E coli pH414 AAC(6′)-I, pH414 AAC(6′)-I, Table 2B (Example 2)) was 1 µg/mL (≈ 1.53 µM) and the MIC50 ([1]; read-out: MIC50 E coli pH415 AAC(6′)-II, pH415 AAC(6′)-II, Table 2B (Example 2)) was 1 µg/mL (≈ 1.53 µM). The MIC50 ([1]; read-out: MIC50 E coli pH421 APH(3′)-I, pH421 APH(3′)-I, Table 2B (Example 2)) was > 32 µg/mL, the MIC50 ([1]; read-out: MIC50 E coli pH422 APH(3′)-II, pH422 APH(3′)-II, Table 2B (Example 2)) was 8 µg/mL (≈ 12.2 µM) and the MIC50 ([1]; read-out: MIC50 E coli pH423 APH(3)-VI, pH423 APH(3)-VI, Table 2B (Example 2)) was 1 to 2 µg/mL (≈ 1.53 to 3.05 µM). It also gave an MIC50 ([1]; read-out: MIC50 E coli pH432 ANT(4′), pH432 ANT(4′), Table 2B (Example 2)) of 1 µg/mL (≈ 1.53 µM), an MIC ([1]; read-out: MIC AAC(6′)) of 1 µg/mL (≈ 1.53 µM) and an MIC ([1]; read-out: MIC ANT(4′)) of 0.25 µg/mL (≈ 0.382 µM). For the same molecule, the MIC ([1]; read-out: MIC APH(3′)-II) was 8 µg/mL (≈ 12.2 µM), the MIC ([1]; read-out: MIC APH(3′)-VI) was 1 to 2 µg/mL (≈ 1.53 to 3.05 µM) and the IC50 [2] was 0.12 µM. The IC50 ([3]; cytosolic, Table 3 (Example 2), read-out: IC50 Cyt) was 19 µM, the IC50 ([4]; mitochondrial, Table 3 (Example 2), read-out: IC50 Mit) was 2.3 µM and the MIC ([5]; Klebsiella pneumoniae, read-out: MIC AG215 K. pneumon) was 0.5 to 1 µg/mL (≈ 0.764 to 1.53 µM). The MIC [6] was 4 µg/mL (≈ 6.11 µM), the MIC [7] was 1 µg/mL (≈ 1.53 µM) and the “MIC SZ380 M. smegmatis” value (M. smegmatis SZ380) was 1 to 2 µg/mL.
`CC(=O)O.NCC(=O)NC1C(OC2C(N)CC(N)C(O)C2OC2OC(CO)C(OC3OC(CN)C(O)C(O)C3N)C2O)OC(CN)C(O)C1O` (stereo not shown) [Compound 175, 2′-N-(2-Aminoacetyl)-neomycin acetate salt] was tested, and the “MIC MRSA AG038” value (MRSA; clinical isolate AG038, Table 1 (Example 3)) was 4 µg/mL, the “MIC MRSA AG039” value (MRSA; clinical isolate AG039, Table 1 (Example 3)) was >32 µg/mL and the “MIC MRSA AG042” value (MRSA; clinical isolate AG042, Table 1 (Example 3)) was >32 µg/mL. For the same molecule, the “MIC E coli AG006 Wild type” value (E coli wild type; AG006 Wild type, Table 2 (Example 3)) was 8 µg/mL, the “MIC E coli AG104 Wild type” value (E coli wild type; AG104 Wild type, Table 2 (Example 3)) was 16 µg/mL and the “antibacterial activity, in words” value (E coli wild type; MRSA and E coli, compared with the parent compound) was “very substantial loss of activity”. For the same molecule, the “MIC E. coli WT” value (E coli wild type; WT, Table 5 (Example 3)) was 8 to 16 µg/mL, the “MIC E coli AG001” value (E coli wild type; clinical isolate AG001, Table 1 (Example 3)) was 16 µg/mL and the “MIC E coli AG003” value (E coli wild type; clinical isolate AG003, Table 1 (Example 3)) was 32 µg/mL. For the same molecule, the “MIC E coli AG055” value (E coli wild type; clinical isolate AG055, Table 1 (Example 3)) was 16 µg/mL, the “MIC AG212 E. coli” value (E coli wild type; strain AG212 E. coli (ATCC25922)) was 16 µg/mL and the “MIC AG220 P. aerugin” value (P aeruginosa; strain AG220 Pseudomonas aeruginosa ATCC27853) was >32 µg/mL. For the same molecule, the “MIC E. coli AG106 AAC(2′)-Ia” value ([1]; AG106 AAC(2′)-Ia, Table 5 (Example 3)) was 16 to 32 µg/mL, the “MIC E coli AG106 AAC(2′)” value ([1]; AG106 AAC(2′), Table 2 (Example 3)) was 16 to 32 µg/mL and the “MIC E. coli pGB2armA armA” value ([1]; pGB2armA armA, Table 5 (Example 3)) was 16 μg/ml. For the same molecule, the “Selectivity for Binding to the Bacterial Ribosome over the Mutant Mitochondrial Ribosome” value [8] was 153, the “Selectivity for Binding to the Bacterial Ribosome over the Cytosolic Ribosome” value ([3]; Table 3 (Example 3)) was 155 and the “Selectivity for Binding to the Bacterial Ribosome over the Mitochondrial Ribosome” value ([4]; Table 3 (Example 3)) was 67. For the same molecule, the “MIC AG215 K. pneumon” value [5] was 8 µg/mL, the “MIC AG225 A. baumannii” value [6] was 8 to 16 µg/mL and the “MIC M. smegmatis SZ380 WT” value (M. smegmatis SZ380; SZ380 WT, Table 5 (Example 3)) was 0.25 µg/mL. The “MIC SZ380 M. smegmatis” value (M. smegmatis SZ380) was 0.25 µg/mL.
